Reference: ChEMBL document CHEMBL5154908, “Design, Synthesis, and Biological Characterization of Inhaled p38α/β MAPK Inhibitors for the Treatment of Lung Inflammatory Diseases” (J Med Chem, 2022)
≈ marks a conversion by molar mass, not a printed value.

Key:
[1] = Efflux ratio of permeability in human Caco-2 cells at 10 uM measured after 60 mins by LC-MS/MS analysis; assay type: ADME, cell-based
[2] = Cmax in Sprague-Dawley rat plasma at 0.03 mg/kg, IT measured after 0.8 hrs by LC/MS/MS analysis; assay type: ADME, organism-based; design: dose 0.03 mg/kg, time 0.8 hrs, route it
[3] = molecular target: T1, Mitogen-activated protein kinase 14 (Homo sapiens, UniProt Q16539); experiment: Inhibition of human recombinant full length GST-tagged p38alpha expressed in Escherichia coli preincubated for 2 hrs followed by ATP addition and measured after 1 hr by Alpha screen assay
[4] = molecular target: T1, Mitogen-activated protein kinase 14; experiment: Displacement of SKF-86002 from human inactivated p38alpha assessed as dissociation half life incubated for 2 hrs by fluorescence based analysis
[5] = Inhibition of LPS-stimulated TNFalpha release in human PBMC cells preincubated for 1 hr followed by LPS stimulation and measured after 18 hrs; assay type: functional, cell-based
[6] = Drug uptake in Sprague-Dawley rat lung homogenate at 0.03 mg/kg, IT measured after 7 hrs by LC/MS/MS analysis; assay type: ADME, organism-based; settings: in vivo, other
[7] = Drug uptake in Sprague-Dawley rat lung homogenate at 0.03 mg/kg, IT measured after 24 hrs by LC/MS/MS analysis; assay type: ADME, organism-based; settings: in vivo, other
[8] = Protein binding in rat plasma at 10 uM incubated for 4 hrs by LC/MS/MS analysis; assay type: ADME, cell-free; settings: read-out: PPB (converted)
[9] = molecular target: T2, Mitogen-activated protein kinase 13 (Homo sapiens, UniProt O15264); experiment: Inhibition of recombinant human full length His-tagged p38delta expressed in baculovirus expression system preincubated for 2 hrs followed by ATP addition and measured after 1 hr by Alpha screen assay
T2 sequence (O15264 whole entry): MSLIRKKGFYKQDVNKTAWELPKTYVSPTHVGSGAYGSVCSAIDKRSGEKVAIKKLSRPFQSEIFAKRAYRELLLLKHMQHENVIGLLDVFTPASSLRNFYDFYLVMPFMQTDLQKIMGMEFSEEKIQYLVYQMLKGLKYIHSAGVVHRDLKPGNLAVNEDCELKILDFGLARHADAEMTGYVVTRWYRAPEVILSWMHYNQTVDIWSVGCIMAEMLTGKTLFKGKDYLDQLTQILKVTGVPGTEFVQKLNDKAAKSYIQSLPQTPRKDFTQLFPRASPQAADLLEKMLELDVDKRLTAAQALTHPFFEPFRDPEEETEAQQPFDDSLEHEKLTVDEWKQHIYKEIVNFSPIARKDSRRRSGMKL

Rattus norvegicus [10] = experiment: Antiinflammatory activity against LPS-induced Sprague-Dawley rat inflammatory model assessed as inhibition of neutrophil cells release in BALF at 0.3 mg/kg, IT measured after 12 hrs relative to control; assay type: functional
[11] = molecular target: T3, Mitogen-activated protein kinase 12 (Homo sapiens, UniProt P53778); experiment: Inhibition of recombinant human full length His-tagged p38gamma expressed in baculovirus expression system preincubated for 2 hrs followed by ATP addition and measured after 1 hr by Alpha screen assay
T3 sequence (P53778 whole entry): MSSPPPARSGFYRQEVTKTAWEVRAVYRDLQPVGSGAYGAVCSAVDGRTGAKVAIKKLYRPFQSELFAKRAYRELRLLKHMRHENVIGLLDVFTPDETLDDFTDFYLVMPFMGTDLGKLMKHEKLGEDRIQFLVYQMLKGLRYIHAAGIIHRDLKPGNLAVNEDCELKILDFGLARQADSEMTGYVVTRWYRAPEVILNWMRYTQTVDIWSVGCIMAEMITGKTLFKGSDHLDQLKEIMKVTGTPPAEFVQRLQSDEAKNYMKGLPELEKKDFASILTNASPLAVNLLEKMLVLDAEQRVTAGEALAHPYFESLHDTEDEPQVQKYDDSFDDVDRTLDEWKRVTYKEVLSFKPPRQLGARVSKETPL

[12] = Solubility of the compound at >=1 mg/ml measured after 30 mins by HPLC analysis; assay type: physicochemical
[13] = Protein binding in rat lung homogenate at 10 uM incubated for 4 hrs by LC/MS/MS analysis; assay type: ADME, tissue-based; settings: read-out: PB (converted)
[14] = Metabolic stability in rat liver microsomes assessed as half life at 1 uM preincubated for 10 mins followed by NADPH addition and measured after 30 mins by LC/MS/MS analysis; assay type: ADME, Microsome; settings: time 40 min
[15] = Cmax in Sprague-Dawley rat lung homogenate at 0.03 mg/kg, IT measured after 0.8 hrs by LC/MS/MS analysis; assay type: ADME, organism-based; design: time 0.8 hrs, dose 0.03 mg/kg, route it
[16] = molecular target: Mitogen-activated protein kinase 11 (Homo sapiens, UniProt Q15759); experiment: Inhibition of recombinant human full length His-tagged p38beta expressed in baculovirus expression system preincubated for 2 hrs followed by ATP addition and measured after 1 hr by Alpha screen assay
[17] = Selectivity index, ratio of drug concentration in Sprague-Dawley rat lung homogenate to IC50 for human p38alpha; assay type: tissue-based; settings: tissue homogenate
[18] = Permeability across apical to basolateral side in human Caco-2 cells at 10 uM measured after 60 mins by LC/MS/MS analysis; assay type: ADME, cell-based; settings: read-out: permeability
[19] = Drug concentration in Sprague-Dawley rat lung homogenate at 0.3 mg/kg, IT measured after 24 hrs by LC/MS/MS analysis; assay type: ADME, organism-based; settings: read-out: Ct
[20] = Cmax in Sprague-Dawley rat plasma at 0.3 mg/kg, IT measured after 0.8 hrs by LC/MS/MS analysis; assay type: ADME, organism-based; design: time 0.8 hrs, dose 0.3 mg/kg, route it
[21] = Cmax in Sprague-Dawley rat lung homogenate at 0.3 mg/kg, IT measured after 0.8 hrs by LC/MS/MS analysis; assay type: ADME, organism-based; design: time 0.8 hrs, dose 0.3 mg/kg, route it
Rattus norvegicus [22] = experiment: Antiinflammatory activity against LPS-induced Sprague-Dawley rat inflammatory model assessed as inhibition of neutrophil cells release in BALF at 1 mg/kg, IT measured after 24 hrs relative to control; assay type: functional
[23] = Protein binding in human plasma at 10 uM incubated for 4 hrs by LC/MS/MS analysis; assay type: ADME, cell-free; settings: read-out: PPB
Rattus norvegicus [24] = experiment: Antiinflammatory activity against LPS-induced Sprague-Dawley rat inflammatory model assessed as inhibition of neutrophil cells release in BALF at 1 mg/kg, IT measured after 1 hr relative to control; assay type: functional
[25] = Terminal half life in Sprague-Dawley rat lung homogenate at 0.03 mg/kg, IT measured after 24 hrs by LC/MS/MS analysis; assay type: ADME, organism-based; settings: read-out: beta t1/2
[26] = Drug concentration in Sprague-Dawley rat lung homogenate at 1 mg/kg, IT measured after 24 hrs by LC/MS/MS analysis; assay type: ADME, organism-based; settings: read-out: Ct
Rattus norvegicus [27] = experiment: Antiinflammatory activity against LPS-induced Sprague-Dawley rat inflammatory model assessed as inhibition of neutrophil cells release in BALF at 0.1 mg/kg, IT preincubated for 2 hrs followed by LPS-stimulation and measured after 4 hrs relative to control; assay type: functional; design: scale not given: the % may be the effect or the level left; settings: time 6 hrs
[28] = molecular target: Citron Rho-interacting kinase (Homo sapiens) (UniProt O14578); experiment: Inhibition of human CIT at 100 nM by KINOMEscan assay relative to control
[29] = molecular target: Epithelial discoidin domain-containing receptor 1 (Homo sapiens) (UniProt Q08345); experiment: Inhibition of human DDR1 at 100 nM by KINOMEscan assay relative to control
[30] = molecular target: Ephrin type-A receptor 4 (Homo sapiens) (UniProt P54764); experiment: Inhibition of EphA4 (unknown origin) at 1 uM relative to control
[31] = molecular target: T1, Mitogen-activated protein kinase 14; experiment: Binding affinity to biotinylated P38alpha assessed as dissociation half life by SPR analysis
[32] = molecular target: TRAF2 and NCK-interacting protein kinase (Homo sapiens) (UniProt Q9UKE5); experiment: Inhibition of TNIK (unknown origin) at 100 nM by KINOMEscan assay relative to control
[33] = molecular target: T4, Discoidin domain-containing receptor 2 (Homo sapiens) (UniProt Q16832); experiment: Inhibition of human DDR2 at 100 nM by KINOMEscan assay relative to control
T4 sequence (whole entry): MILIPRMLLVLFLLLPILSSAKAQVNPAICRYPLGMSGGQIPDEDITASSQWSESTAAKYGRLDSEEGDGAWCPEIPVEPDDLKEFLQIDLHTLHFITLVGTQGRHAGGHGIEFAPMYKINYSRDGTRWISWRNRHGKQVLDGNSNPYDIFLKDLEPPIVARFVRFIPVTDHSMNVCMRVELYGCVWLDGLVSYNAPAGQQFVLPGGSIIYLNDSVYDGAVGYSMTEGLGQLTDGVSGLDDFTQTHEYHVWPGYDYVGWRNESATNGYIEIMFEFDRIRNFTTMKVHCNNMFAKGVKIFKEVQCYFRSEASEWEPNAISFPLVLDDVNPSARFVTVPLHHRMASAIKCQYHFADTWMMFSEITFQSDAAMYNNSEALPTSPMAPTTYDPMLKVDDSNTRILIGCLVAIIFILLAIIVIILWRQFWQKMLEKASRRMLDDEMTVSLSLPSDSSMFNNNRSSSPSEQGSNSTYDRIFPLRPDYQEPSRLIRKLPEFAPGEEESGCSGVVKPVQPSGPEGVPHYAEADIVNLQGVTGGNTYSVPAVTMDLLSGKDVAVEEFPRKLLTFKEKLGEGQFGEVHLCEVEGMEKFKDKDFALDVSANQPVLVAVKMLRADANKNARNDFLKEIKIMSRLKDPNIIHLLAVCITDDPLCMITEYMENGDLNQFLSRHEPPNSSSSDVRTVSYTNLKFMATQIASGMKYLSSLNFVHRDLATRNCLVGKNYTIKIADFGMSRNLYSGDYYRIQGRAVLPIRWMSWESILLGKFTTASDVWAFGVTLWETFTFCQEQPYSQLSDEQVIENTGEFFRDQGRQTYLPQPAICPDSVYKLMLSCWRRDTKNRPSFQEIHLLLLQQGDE

T1 sequence (Q16539 whole entry): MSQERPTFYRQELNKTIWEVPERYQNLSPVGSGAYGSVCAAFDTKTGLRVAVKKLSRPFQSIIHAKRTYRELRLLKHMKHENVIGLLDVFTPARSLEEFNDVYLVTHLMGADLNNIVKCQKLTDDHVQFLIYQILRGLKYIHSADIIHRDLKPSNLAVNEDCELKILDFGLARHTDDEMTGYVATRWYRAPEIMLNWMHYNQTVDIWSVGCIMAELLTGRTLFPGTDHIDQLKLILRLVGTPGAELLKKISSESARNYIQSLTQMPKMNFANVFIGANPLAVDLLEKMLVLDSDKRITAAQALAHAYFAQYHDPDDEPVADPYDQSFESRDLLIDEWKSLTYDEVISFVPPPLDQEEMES
Sequence of Mitogen-activated protein kinase 11 (Q15759 whole entry): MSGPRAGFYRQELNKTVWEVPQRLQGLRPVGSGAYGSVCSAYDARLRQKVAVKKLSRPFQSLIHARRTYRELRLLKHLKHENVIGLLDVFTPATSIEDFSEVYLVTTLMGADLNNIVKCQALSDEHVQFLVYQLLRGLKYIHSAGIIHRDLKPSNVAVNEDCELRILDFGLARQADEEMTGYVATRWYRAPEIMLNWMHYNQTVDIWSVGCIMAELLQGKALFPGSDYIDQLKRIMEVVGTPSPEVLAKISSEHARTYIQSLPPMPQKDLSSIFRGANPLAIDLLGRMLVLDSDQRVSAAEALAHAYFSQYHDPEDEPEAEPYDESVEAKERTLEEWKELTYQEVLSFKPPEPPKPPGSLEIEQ
Sequence of Epithelial discoidin domain-containing receptor 1 (Homo sapiens) (Q08345 whole entry, the tested form may be a part): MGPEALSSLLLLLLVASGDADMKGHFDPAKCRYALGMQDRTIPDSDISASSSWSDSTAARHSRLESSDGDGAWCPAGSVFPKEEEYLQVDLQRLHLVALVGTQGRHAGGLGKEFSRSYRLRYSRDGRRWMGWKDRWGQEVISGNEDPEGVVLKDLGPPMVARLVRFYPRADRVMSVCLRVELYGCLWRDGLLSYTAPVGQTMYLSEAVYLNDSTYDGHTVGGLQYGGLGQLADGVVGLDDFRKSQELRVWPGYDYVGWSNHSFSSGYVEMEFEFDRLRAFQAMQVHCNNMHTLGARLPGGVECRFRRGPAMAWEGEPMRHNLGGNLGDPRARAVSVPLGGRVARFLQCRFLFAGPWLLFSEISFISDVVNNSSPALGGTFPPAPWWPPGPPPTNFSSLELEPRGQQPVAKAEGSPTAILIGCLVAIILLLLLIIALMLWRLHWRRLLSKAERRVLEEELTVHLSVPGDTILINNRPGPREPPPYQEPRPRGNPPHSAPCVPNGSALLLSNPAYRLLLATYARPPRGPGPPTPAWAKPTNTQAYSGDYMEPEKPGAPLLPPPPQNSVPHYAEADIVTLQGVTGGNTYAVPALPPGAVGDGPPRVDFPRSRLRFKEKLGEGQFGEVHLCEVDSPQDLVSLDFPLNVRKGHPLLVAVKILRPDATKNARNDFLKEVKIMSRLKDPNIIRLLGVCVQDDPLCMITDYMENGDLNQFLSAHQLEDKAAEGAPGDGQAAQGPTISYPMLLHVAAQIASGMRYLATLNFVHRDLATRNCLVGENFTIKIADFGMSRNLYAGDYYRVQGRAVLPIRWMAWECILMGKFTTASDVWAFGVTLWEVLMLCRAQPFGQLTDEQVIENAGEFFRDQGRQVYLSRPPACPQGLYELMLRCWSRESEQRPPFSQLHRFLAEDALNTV
Sequence of Citron Rho-interacting kinase (Homo sapiens) (O14578 whole entry, the tested form may be a part): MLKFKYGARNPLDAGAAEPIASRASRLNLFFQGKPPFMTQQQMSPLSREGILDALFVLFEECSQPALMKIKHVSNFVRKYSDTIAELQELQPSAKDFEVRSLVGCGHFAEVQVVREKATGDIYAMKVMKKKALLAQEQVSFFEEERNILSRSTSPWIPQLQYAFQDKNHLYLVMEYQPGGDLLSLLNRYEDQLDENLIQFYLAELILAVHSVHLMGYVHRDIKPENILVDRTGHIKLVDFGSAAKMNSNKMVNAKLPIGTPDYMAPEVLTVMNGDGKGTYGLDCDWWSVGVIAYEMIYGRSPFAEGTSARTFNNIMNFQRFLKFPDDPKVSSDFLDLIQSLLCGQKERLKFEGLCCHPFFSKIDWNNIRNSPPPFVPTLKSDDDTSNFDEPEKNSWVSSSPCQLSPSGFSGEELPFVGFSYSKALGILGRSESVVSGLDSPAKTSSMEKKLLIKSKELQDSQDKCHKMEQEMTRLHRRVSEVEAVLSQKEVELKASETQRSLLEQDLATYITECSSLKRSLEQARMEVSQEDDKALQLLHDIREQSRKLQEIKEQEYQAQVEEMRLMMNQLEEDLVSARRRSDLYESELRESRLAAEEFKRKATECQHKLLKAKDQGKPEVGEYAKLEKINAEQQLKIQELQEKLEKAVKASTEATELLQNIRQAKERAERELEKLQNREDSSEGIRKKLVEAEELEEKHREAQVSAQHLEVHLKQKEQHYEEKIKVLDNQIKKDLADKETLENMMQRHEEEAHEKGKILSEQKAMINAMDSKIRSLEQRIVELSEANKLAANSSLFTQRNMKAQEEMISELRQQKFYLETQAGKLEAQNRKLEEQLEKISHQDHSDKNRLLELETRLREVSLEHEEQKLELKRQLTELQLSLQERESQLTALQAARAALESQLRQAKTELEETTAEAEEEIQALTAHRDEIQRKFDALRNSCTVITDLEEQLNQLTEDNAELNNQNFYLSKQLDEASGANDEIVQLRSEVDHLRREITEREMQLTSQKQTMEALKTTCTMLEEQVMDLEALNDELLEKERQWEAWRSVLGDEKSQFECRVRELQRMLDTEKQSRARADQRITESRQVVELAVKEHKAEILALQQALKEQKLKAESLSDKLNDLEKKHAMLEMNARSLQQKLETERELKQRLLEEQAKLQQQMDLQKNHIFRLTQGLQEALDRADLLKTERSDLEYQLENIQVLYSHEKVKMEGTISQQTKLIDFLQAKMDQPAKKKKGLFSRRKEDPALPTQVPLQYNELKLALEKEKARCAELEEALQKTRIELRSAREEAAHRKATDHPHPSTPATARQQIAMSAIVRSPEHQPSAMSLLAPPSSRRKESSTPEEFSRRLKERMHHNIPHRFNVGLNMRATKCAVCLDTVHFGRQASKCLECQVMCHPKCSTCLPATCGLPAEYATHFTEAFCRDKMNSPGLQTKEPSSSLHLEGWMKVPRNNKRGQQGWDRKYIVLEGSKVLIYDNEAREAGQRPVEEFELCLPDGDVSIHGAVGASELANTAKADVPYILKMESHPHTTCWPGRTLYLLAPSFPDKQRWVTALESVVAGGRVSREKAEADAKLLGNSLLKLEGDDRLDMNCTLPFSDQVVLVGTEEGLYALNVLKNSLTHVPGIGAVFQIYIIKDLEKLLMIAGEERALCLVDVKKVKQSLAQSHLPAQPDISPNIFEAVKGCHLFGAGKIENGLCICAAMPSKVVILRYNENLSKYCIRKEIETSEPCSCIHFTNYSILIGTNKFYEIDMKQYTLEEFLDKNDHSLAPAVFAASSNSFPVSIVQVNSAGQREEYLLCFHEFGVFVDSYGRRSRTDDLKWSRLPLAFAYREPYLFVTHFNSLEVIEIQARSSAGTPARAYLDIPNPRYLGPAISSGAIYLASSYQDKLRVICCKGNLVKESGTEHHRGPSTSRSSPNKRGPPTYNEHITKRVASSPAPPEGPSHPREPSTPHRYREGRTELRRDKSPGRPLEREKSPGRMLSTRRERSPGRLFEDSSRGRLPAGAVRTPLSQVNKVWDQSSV
Sequence of Ephrin type-A receptor 4 (Homo sapiens) (P54764 whole entry): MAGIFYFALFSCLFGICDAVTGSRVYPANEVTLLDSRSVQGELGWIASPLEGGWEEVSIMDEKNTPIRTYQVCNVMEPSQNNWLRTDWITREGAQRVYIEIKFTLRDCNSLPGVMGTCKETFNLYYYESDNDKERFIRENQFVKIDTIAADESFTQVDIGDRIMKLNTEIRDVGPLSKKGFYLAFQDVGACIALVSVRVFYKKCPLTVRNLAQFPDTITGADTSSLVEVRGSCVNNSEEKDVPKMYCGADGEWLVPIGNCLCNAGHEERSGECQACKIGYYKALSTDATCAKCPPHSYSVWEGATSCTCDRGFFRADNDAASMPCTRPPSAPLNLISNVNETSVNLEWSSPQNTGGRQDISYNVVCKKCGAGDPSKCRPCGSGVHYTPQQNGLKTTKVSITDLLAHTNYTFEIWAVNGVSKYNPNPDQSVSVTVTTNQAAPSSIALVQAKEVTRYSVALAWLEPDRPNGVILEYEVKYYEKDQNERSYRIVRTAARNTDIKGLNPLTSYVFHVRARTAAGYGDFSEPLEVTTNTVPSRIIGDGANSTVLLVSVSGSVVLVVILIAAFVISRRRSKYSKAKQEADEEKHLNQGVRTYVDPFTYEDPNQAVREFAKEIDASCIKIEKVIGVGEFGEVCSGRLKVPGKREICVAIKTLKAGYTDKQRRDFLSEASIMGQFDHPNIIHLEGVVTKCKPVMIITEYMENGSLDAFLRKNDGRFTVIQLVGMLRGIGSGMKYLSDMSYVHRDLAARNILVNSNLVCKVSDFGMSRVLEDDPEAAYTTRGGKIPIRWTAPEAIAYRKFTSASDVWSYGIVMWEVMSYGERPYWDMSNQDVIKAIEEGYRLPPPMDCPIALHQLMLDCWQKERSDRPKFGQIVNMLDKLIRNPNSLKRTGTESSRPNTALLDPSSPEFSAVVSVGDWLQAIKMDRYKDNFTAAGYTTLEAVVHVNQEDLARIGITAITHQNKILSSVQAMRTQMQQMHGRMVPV

Row | efflux ratio at 1 h, 10 µM [1] | Cmax [2] [nM] | IC50 [3] [nM] | T1/2 [4] [h] | IC50 [5] [nM] | Drug uptake [6] [%] | Drug uptake [7] [%] | fraction unbound at 4 h, 10 µM [8] | IC50 [9] [µM] | IC50 [11] [nM] | solubility at 0.5 h [12] [µg/mL] | fraction unbound at 4 h, 10 µM [13] | half-life at 1 µM [14] [min] | Cmax [15] [nM] | IC50 [16] [nM] | Papp A→B at 1 h, 10 µM [18] [×10⁻⁶ cm/s] | concentration at 24 h [19] [µM] | SMILES | inhibition in vivo at 0.3 mg/kg (Rattus norvegicus [10]) [%] | Ratio [17] | other results
1 | > 2.5 | 50 | 0.3 | > 16 | 1 | 99 | 23 | 0.001 | 0.931 | 10 | 10 (≈ 15.4 µM) | 0.009 | 15 | 5070 | 0.8 | 3.3 | 10.3 | Cc1ccc(-n2nc(C(C)(C)C)cc2NC(=O)N[C@H]2CC[C@@H](Oc3ccc4nnc(N5CCC(CO)CC5)n4c3)c3ccccc32)cc1 | 19 | > 300 | 
2 | > 2.5 |  | 0.1 |  | 1 | 7.2 | 1.7 | 0.014 | 4.1 |  | 800 (≈ 1180 µM) | 0.005 | < 5 |  |  | 1.2 | 1.4 | C[C@H]1CCCCN1c1nnc2ccc(O[C@@H]3CC[C@H](NC(=O)Nc4cc(C(C)(C)C)nn4-c4cnn(CCN(C)C)c4)c4ccccc43)cn12 [listing 1 of 2 here] | 56 | 70 | Cmax [20]: 20 nM; Cmax [21]: 3.04 µM
3 |  | 90 | 0.2 | > 16 | 0.1 | 8.4 | 9.6 | < 0.001 | > 5 | 164 | 10 (≈ 17.3 µM) | 0.004 | < 10 | 1080 | 0.2 | 2.8 |  | Cc1ccc(-n2nc(C(C)(C)C)cc2NC(=O)N[C@H]2CC[C@@H](Oc3ccc4nnc(C(C)C)n4c3)c3ccccc32)cc1 |  | 149 | inhibition in vivo at 1 mg/kg (Rattus norvegicus [22]): -3%; fraction unbound at 4 h, 10 µM [23]: 0.001; inhibition in vivo at 1 mg/kg (Rattus norvegicus [24]): 50%; half-life [25]: > 1440 min; concentration at 24 h [26]: 29.8 µM
4 | > 2.5 | 10 | 0.2 | > 16 | 1 | 8.4 | 1.6 | 0.003 | > 10 | 2860 | 100 (≈ 142 µM) | 0.001 | 20 | 2700 | 1.3 | 1.4 | 0.97 | C[C@H]1CCCCN1c1nnc2ccc(O[C@@H]3CC[C@H](NC(=O)Nc4cc(C(C)(C)C)nn4-c4cccc(OCCN(C)C)c4)c4ccccc43)cn12 | 49 | 4.9 | 
5 |  |  |  |  | 8 |  |  |  |  |  |  |  |  |  |  |  |  | CC(C)(C)c1cc(NC(=O)NCc2ccccc2Sc2ccc3nnc(-c4ccccc4SCCO)n3c2)n(-c2ccc(O)c(Cl)c2)n1 [PF-03715455] |  |  | Activity (Rattus norvegicus [27]): 14%
6 |  |  |  | > 16 |  |  |  |  |  |  |  |  |  |  |  |  |  | C[C@H]1CCCCN1c1nnc2ccc(O[C@@H]3CC[C@H](NC(=O)Nc4cc(C(C)(C)C)nn4-c4cnn(CCN(C)C)c4)c4ccccc43)cn12 [listing 2 of 2 here] |  |  | inhibition [28]: > 50%; inhibition [29]: > 50%; inhibition [30]: 82%; T1/2 [31]: 51 h; inhibition [32]: > 50%; inhibition [33]: > 50%
7 | > 2.5 | 60 | 0.3 | > 16 | 0.3 | 21 | 19 | < 0.001 | > 10 | 16 | 30 (≈ 48.5 µM) | 0.001 | < 10 | 3180 | 0.4 | 2.5 | 12.1 | Cc1ccc(-n2nc(C(C)(C)C)cc2NC(=O)N[C@H]2CC[C@@H](Oc3ccc4nnc(N5CCCCC5)n4c3)c3ccccc32)cc1 | 20 | 40 | 
